Data published in patent US10138229B2, “Heteroaromatic compounds as BTK inhibitors” (Boehringer Ingelheim International GmbH, priority 2012, dated 2018).

Target: EGFR (Homo sapiens (Human), UniProt P00533)
Experiment: Inhibition of EGFR autophosphorylation in A431 human epithelial cells stimulated with EGF
Assay type: cell-based
Settings: EGF 60 ng/mL, phospho EGFR, read-out: A431 p-EGFR IC50
Source text: The compounds described herein show a range of selectivities against EGFR as measured in cellular assays (BTK activity measured by CD69 expression in primary CD19^+ cells; EGFR activity measured by EGFR phosphorylation in A431 cells).
Inhibition of EGFR Autophosphorylation in A431 Human Epithelial Cells Stimulated with Epithelial Growth Factor
A431 cells (ATCC # CRL-1555 FZ) are thawed and plated in DMEM containing 10% FBS in a 384-well tissue culture treated plate at 15,000 cells/well. After incubating for 24 hours at 37° C., 5% CO2, the cells are treated with test compound (1% DMSO final concentration) and incubated for 16 hours at 37° C., 5% CO2. EGF (Millipore, 01-107) is added at a final concentration of 60 ng/mL and incubated for 10 minutes. The medium is removed, the cells are lysed, and phospho EGFR is measured (Meso Scale Diagnostics, N31CB-1).

EGFR, sequence (P00533 25-1210): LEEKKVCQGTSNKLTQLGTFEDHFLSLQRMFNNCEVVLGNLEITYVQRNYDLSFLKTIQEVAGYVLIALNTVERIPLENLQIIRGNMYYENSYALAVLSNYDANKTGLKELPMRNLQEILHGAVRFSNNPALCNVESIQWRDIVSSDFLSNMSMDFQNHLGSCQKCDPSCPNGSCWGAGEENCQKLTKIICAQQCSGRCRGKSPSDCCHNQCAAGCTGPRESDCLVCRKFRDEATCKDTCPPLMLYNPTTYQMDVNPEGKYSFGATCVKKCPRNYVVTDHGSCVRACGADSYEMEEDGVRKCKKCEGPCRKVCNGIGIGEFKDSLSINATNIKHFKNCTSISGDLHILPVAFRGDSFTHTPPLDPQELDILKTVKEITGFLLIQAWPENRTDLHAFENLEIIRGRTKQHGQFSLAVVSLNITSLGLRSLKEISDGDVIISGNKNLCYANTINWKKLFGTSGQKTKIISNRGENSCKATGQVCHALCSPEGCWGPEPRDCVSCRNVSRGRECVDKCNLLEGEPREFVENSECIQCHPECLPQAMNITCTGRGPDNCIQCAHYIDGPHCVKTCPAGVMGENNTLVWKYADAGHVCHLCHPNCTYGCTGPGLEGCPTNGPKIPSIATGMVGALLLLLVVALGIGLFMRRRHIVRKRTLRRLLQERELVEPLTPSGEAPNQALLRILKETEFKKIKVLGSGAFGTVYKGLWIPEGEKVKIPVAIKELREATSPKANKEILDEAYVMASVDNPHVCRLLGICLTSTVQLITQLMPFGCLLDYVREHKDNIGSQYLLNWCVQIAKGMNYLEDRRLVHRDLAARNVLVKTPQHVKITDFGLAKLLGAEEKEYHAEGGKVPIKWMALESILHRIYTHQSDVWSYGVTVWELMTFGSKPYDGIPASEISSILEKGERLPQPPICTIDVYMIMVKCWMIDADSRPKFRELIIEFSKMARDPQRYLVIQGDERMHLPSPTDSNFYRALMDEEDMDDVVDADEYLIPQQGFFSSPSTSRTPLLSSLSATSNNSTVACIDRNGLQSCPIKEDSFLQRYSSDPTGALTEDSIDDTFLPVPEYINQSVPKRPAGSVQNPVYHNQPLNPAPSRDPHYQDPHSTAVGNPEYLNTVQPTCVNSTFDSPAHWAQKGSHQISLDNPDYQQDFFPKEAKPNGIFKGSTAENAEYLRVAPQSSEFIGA

SMILES | IC50 [nM]
C=CC(=O)N1CC2(CC(n3cc(C(N)=O)c(-c4ccc(Oc5ccccc5)cc4)n3)C2)C1 [Example 28] | 4700
C=CC(=O)N1CCC[C@@H](n2nc(-c3ccc(Oc4ccccc4)cc3)c(C(N)=O)c2N)C1 [Example 54] | 6.6

Target: BTK (Homo sapiens (Human), UniProt Q06187)
Sequence (Q06187 whole entry): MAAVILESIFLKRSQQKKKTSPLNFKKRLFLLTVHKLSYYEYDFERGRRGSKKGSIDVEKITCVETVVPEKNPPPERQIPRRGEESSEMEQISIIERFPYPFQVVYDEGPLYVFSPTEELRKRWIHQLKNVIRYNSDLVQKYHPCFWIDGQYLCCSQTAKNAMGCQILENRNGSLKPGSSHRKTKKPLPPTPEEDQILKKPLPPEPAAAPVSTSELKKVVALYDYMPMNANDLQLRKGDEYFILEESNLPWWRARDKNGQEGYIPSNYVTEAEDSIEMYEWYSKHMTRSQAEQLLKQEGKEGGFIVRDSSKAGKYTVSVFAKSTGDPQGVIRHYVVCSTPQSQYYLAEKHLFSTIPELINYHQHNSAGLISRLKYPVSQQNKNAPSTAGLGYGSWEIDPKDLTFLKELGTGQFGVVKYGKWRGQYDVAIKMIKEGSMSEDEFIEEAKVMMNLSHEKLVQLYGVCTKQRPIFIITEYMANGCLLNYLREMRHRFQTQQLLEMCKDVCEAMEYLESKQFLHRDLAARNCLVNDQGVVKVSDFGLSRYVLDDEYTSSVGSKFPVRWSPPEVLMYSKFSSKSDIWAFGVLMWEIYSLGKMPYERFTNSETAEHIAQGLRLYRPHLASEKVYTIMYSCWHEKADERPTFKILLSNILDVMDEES
Experiment: Inhibition of B-cell activation measured by CD69 expression in primary CD19+ cells
Assay type: cell-based
Settings: primary CD19+ cells stimulated with anti-human IgD, CD69 expression by flow cytometry
Method: Cells were collected and plated in a 96 flat bottom plate at a concentration of 2×10^5/well in RPMI media containing 10% FBS, rested for 1 hour at 37° c. Cells were treated with inhibitor in duplicates or vehicle control in 1% DMSO final concentration for 1 hour at 37° c., 5% CO2. […] B cells were analyzed by flow cytometry using a BD LSRII or BD FACsCanto Flow Cytometer. Viable cells were gated, and CD69 percentage was determined using FlowJo software.

SMILES | IC50 [nM]
C=CC(=O)N1CC2(CC(n3cc(C(N)=O)c(-c4ccc(Oc5ccccc5)cc4)n3)C2)C1 [Example 28] | 9

Target: full-length human His-tagged BTK (Homo sapiens (Human), UniProt Q06187)
Sequence (Q06187 whole entry): as above
Experiment: BTK Assay (HTRF, Cisbio KinEASE-TK)
Assay type: biochemical
Settings: 6 nM BTK, 30 uM ATP, 15 min preincubation
Method: An HTRF assay (Cisbio KinEASE-TK cat #62TKOPEC) was performed to quantitate the ability of test compounds to inhibit BTK mediated phosphorylation of substrate. Assays were assembled in 384 well plates where 6 nM of full-length human His-tagged BTK (Life Technologies cat # PV3587) and test compound at varying concentrations were preincubated for 15 minutes at 28° C. Then, 1 uM of TK substrate-biotin and 30 uM ATP were added and incubated for an additional 30 minutes at 28° C.

SMILES | IC50 [nM]
C=CC(=O)N1CC2(CC(n3cc(C(N)=O)c(-c4ccc(Oc5ccccc5)cc4)n3)C2)C1 [Example 28] | 3.5
CC#CC(=O)N1CC[C@]2(C1)C[C@@H](n1nc(-c3ccc(Oc4ccccc4)cc3)c(C(N)=O)c1N)C2 [Example 92] | 0.89
NC(=O)c1cn([C@@H]2CCCN(C(=O)C#CCN3CCOCC3)C2)nc1-c1ccc(Oc2ccccc2)cc1 [Example 93] | 33
C=CC(=O)N1CCC[C@@H](n2cc(C(N)=O)c(-c3ccc(C(=O)N4CCCCC4)cc3)n2)C1 [Example 94] | 8200
C=CC(=O)N1CCC[C@@H](n2cc(C(N)=O)c(-c3ccc(OCCOC)cc3)n2)C1 [Example 95] | 1600
C=CC(=O)N1CCC[C@@H](n2cc(C(N)=O)c(-c3ccc(Oc4ccccc4F)cc3)n2)C1 [Example 96] | 4.8
C=CC(=O)NC1CC2(C1)CC(n1nc(-c3ccc(Oc4ccccc4)cc3)c(C(N)=O)c1N)C2 (stereo not shown) [Example 97] | 0.8
CN(C)C/C=C/C(=O)N1CC[C@]2(C1)C[C@@H](n1nc(-c3ccc(Oc4ccccc4)cc3)c(C(N)=O)c1N)C2 [Example 98] | 0.7
NC(=O)c1c(-c2ccc(Oc3ccccc3)cc2)nn([C@H]2C[C@]3(CCN(C(=O)/C=C/CN4CCOCC4)C3)C2)c1N [Example 99] | 3.2
CN(C)C/C=C/C(=O)N1CC2(CC(n3nc(-c4ccc(Oc5ccccc5)cc4)c(C(N)=O)c3N)C2)C1 [Example 100] | 0.8
C=CC(=O)N1CC2(CC(n3nc(-c4ccc(Oc5ccccc5)nc4)c(C(N)=O)c3N)C2)C1 [Example 101] | 9.2
CC#CC(=O)N1CC2(CC(n3nc(-c4ccc(Oc5ccccc5)nc4)c(C(N)=O)c3N)C2)C1 [Example 102] | 2.7
C=CC(=O)N1CC2(CC(n3nc(-c4ccc(Oc5ccccc5)cn4)c(C(N)=O)c3N)C2)C1 [Example 103] | 2.8
C=CC(=O)N1CC2(CC(n3nc(-c4ccc(OCC5CC5)cc4)c(C(N)=O)c3N)C2)C1 [Example 104] | 19
C=CC(=O)N1CC2(CC(n3nc(-c4ccc(OC(C)C)cc4)c(C(N)=O)c3N)C2)C1 [Example 105] | 13
CC#CC(=O)N1CC2(CC(n3nc(-c4ccc(OC(F)(F)F)cc4)c(C(N)=O)c3N)C2)C1 [Example 108] | 14
C=CC(=O)N1CC2(CC(n3nc(-c4ccc(OC(F)(F)F)cc4)c(C(N)=O)c3N)C2)C1 [Example 109] | 24
CC#CC(=O)N1CC2(CC(n3nc(-c4ccc(Oc5ccccc5)cn4)c(C(N)=O)c3N)C2)C1 [Example 110] | 0.87
C=CC(=O)N1CC2(CC(n3nc(-c4ccc(OCCC)cc4)c(C(N)=O)c3N)C2)C1 [Example 111] | 16
C=CC(=O)N1CC[C@]2(C1)C[C@@H](n1nc(-c3ccc(Oc4ccccc4)nc3)c(C(N)=O)c1N)C2 [Example 114] | 3.4
C=CC(=O)N1CC2(CC(n3nc(-c4ccc(OCC(F)(F)F)cc4)c(C(N)=O)c3N)C2)C1 [Example 116] | 12

SMILES | IC50 [nM]
C=CC(=O)N1CC[C@]2(C1)C[C@@H](n1nc(-c3ccc(Oc4ccccc4)cn3)c(C(N)=O)c1N)C2 [Example 117] | 1.1
CC#CC(=O)N1CC[C@]2(C1)C[C@@H](n1nc(-c3ccc(Oc4ccccc4)cn3)c(C(N)=O)c1N)C2 [Example 118] | 0.5
CC#CC(=O)N1CC[C@]2(C1)C[C@@H](n1nc(-c3ccc(Oc4ccccc4)cn3)c(C(N)=O)c1N)C2 [Example 119] | 11
C=CC(=O)N1CC[C@]2(C1)C[C@@H](n1nc(-c3ccc(Oc4ccccc4)cn3)c(C(N)=O)c1N)C2 [Example 120] | 3.5
CC#CC(=O)N1CC[C@]2(C1)C[C@@H](n1nc(-c3ccc(Oc4ccccc4)nc3)c(C(N)=O)c1N)C2 [Example 122] | 17
C=CC(=O)N1CC[C@]2(C1)C[C@@H](n1nc(-c3ccc(Oc4ccccc4)nc3)c(C(N)=O)c1N)C2 [Example 123] | 9.1
C=CC(=O)N1CC2(CC(n3nc(-c4ccc(OC(C)C)c(Cl)c4)c(C(N)=O)c3N)C2)C1 [Example 124] | 10
C=CC(=O)N1CC[C@]2(C1)C[C@@H](n1nc(-c3ccc(OCCC)cc3)c(C(N)=O)c1N)C2 [Example 126] | 28
CC#CC(=O)N1CC[C@]2(C1)C[C@@H](n1nc(-c3ccc(OCCC)cc3)c(C(N)=O)c1N)C2 [Example 127] | 15
CC#CC(=O)N1CC[C@]2(C1)C[C@H](n1nc(-c3ccc(C(F)(F)F)cc3)c(C(N)=O)c1N)C2 [Example 128] | 0.9
CC#CC(=O)N1CC[C@]2(C1)C[C@@H](n1nc(-c3ccc(C(F)(F)F)cc3)c(C(N)=O)c1N)C2 [Example 129] | 29
C=CC(=O)N1CC[C@]2(C1)C[C@H](n1nc(-c3ccc(C(F)(F)F)cc3)c(C(N)=O)c1N)C2 [Example 130] | 6.4
C=CC(=O)N1CC[C@]2(C1)C[C@@H](n1nc(-c3ccc(C(F)(F)F)cc3)c(C(N)=O)c1N)C2 [Example 131] | 28
C=CC(=O)N1CC2(CC(n3nc(-c4ccc(O)cc4)c(C(N)=O)c3N)C2)C1 [Example 133] | 8.4
C=CC(=O)N1CC2(CC(n3nc(-c4ccc(OC5CCOC5)cc4)c(C(N)=O)c3N)C2)C1 (stereo not shown) [Example 134] | 120
C=CC(=O)N1CC2(CC(n3nc(-c4ccc(Cl)c(C(F)(F)F)c4)c(C(N)=O)c3N)C2)C1 [Example 135] | 26
CC#CC(=O)N1CC2(CC(n3nc(-c4ccc(Cl)c(C(F)(F)F)c4)c(C(N)=O)c3N)C2)C1 [Example 136] | 14
CC#CC(=O)N1CC[C@]2(C1)C[C@H](n1nc(-c3ccc(F)c(OCC(F)(F)F)c3)c(C(N)=O)c1N)C2 [Example 137] | 1.6
CC#CC(=O)N1CC2(CC(n3nc(-c4ccc(OCCC)c(F)c4)c(C(N)=O)c3N)C2)C1 [Example 138] | 2.2
C=CC(=O)N1CC2(CC(n3nc(-c4ccc(OCCC)c(F)c4)c(C(N)=O)c3N)C2)C1 [Example 139] | 16
CC#CC(=O)N1CC[C@]2(C1)C[C@H](n1nc(-c3ccc(OCCC)cc3)c(C(N)=O)c1N)C2 [Example 140] | 0.9

SMILES | IC50 [nM]
CC#CC(=O)N1CC2(CC(n3nc(-c4ccc(C(F)(F)F)c(F)c4)c(C(N)=O)c3N)C2)C1 [Example 141] | 14
C=CC(=O)N1CC2(CC(n3nc(-c4ccc(C(F)(F)F)c(F)c4)c(C(N)=O)c3N)C2)C1 [Example 142] | 29
CC#CC(=O)N1CC2(CC(n3nc(-c4ccc(F)c(C(F)(F)F)c4)c(C(N)=O)c3N)C2)C1 [Example 143] | 37
C=CC(=O)N1CC2(CC(n3nc(-c4ccc(F)c(C(F)(F)F)c4)c(C(N)=O)c3N)C2)C1 [Example 144] | 72
C=CC(=O)N1CC[C@]2(C1)C[C@H](n1nc(-c3ccc(F)c(OCC(F)(F)F)c3)c(C(N)=O)c1N)C2 [Example 146] | 22
CC#CC(=O)N1CC2(CC(n3nc(-c4ccc(C(F)(F)F)cc4)c(C(N)=O)c3N)C2)C1 [Example 147] | 9.2
CC#CC(=O)N1CC2(CC(n3nc(-c4ccc(OCCC)c(Cl)c4)c(C(N)=O)c3N)C2)C1 [Example 148] | 3
CC#CC(=O)N1CC2(CC(n3nc(-c4ccc(F)c(OCC(F)(F)F)c4)c(C(N)=O)c3N)C2)C1 [Example 149] | 100
CC#CC(=O)N1CC[C@]2(C1)C[C@H](n1nc(-c3ccc(Oc4ccccc4)nc3)c(C(N)=O)c1N)C2 [Example 150] | 0.8
CC#CC(=O)N1CC[C@]2(C1)C[C@H](n1nc(-c3ccc(Oc4ccccn4)cc3)c(C(N)=O)c1N)C2 [Example 151] | 0.7
C=CC(=O)N1CC[C@]2(C1)C[C@H](n1nc(-c3ccc(Oc4ccccn4)cc3)c(C(N)=O)c1N)C2 [Example 152] | 1.5
C=CC(=O)N1CC[C@]2(C1)C[C@H](n1nc(-c3ccc(OC)cc3)c(C(N)=O)c1N)C2 [Example 153] | 2.3
CC#CC(=O)N1CC[C@]2(C1)C[C@H](n1nc(-c3ccc(OC)cc3)c(C(N)=O)c1N)C2 [Example 154] | 0.6
C=CC(=O)N1CC[C@]2(C1)C[C@H](n1nc(-c3cccc(OC)c3)c(C(N)=O)c1N)C2 [Example 155] | 7.3
C=CC(=O)N1CC[C@]2(C1)C[C@H](n1nc(-c3ccc(OC4CC4)cc3)c(C(N)=O)c1N)C2 [Example 156] | 16
CC#CC(=O)N1CC[C@]2(C1)C[C@H](n1nc(-c3ccc(OC4CC4)cc3)c(C(N)=O)c1N)C2 [Example 157] | 2
C=CC(=O)N1CC[C@]2(C1)C[C@H](n1nc(-c3ccc(OC(F)(F)F)cc3)c(C(N)=O)c1N)C2 [Example 162] | 9.2
CC#CC(=O)N1CC[C@]2(C1)C[C@H](n1nc(-c3ccc(OCC)cc3)c(C(N)=O)c1N)C2 [Example 167] | 0.9
CC#CC(=O)N1CC[C@]2(C1)C[C@H](n1nc(-c3ccc(OC(C)C)cc3)c(C(N)=O)c1N)C2 [Example 168] | 1.2
